Here are results for twelve compounds from US20070123556A1, “Treatment with Sigma Receptor Agonists Post-Stroke” (UNIVERSITY OF SOUTH FLORIDA, priority 2005, published 2007).

Experiment [1] deals with cultured cortical neurons. Put plainly: in vitro ischemia (sodium azide/glucose deprivation), fura-2 [Ca2+]i. The format is cell-based, rat. The conditions noted are these: for pIC50: Langmuir-Hill fit, read-out: IC50 (half-maximal concentration), inhibition of ischemia-evoked increases in [Ca2+]i. Here is the method:
The effects of sigma receptors on ischemia-induced changes in intracellular calcium concentrations were studied in cultured cortical neurons from embryonic (E18) rats. Dams were euthanatized by decapitation, uterus removed, and embryos dissected out and placed in isotonic buffer containing (in mM): 137 NaCl, 5 KCl, 0.2 NaH2PO4, 0.2 KH2PO4, 5.5 glucose, 6 sucrose (pH 7.4 with NaOH). Cortex were excised and minced, and tissue digested in isotonic buffer containing 0.25% trypsin/EDTA for 10 min at 37° C. and added to 3× volume of high glucose culture media (Dulbecco's Modified Eagle Media; Invitrogen, Inc., Carlsbad, Calif.), 10% (v/v) fetal calf serum, 100 U/ml penicillin and 0.1 mg/ml streptomycin. Cells were counted on a hemocytometer, plated (0.5×10^6 cells) on 18 mm coverslips coated with poly-l-lysine, and incubated at 37° C. under a 95% air, 5% CO2 atmosphere. After 24 hr the media was replaced with Neurobasal (Invitrogen) medium supplemented with B27 (Invitrogen) and 0.5 mM 1-glutamine to limit astrocyte proliferation in the cultures. Cells were used after 14-21 days in culture.
Intracellular free-calcium was measured using the calcium sensitive dye, fura-2 as previously described (DeHaven and Cuevas, 2004). Cells plated on coverslips were incubated for 1 hour at room temperature in physiological saline solution (PSS) consisting of (in mM): 140 NaCl, 3 KCl, 2.5 CaCl2, 1.2 MgCl2, 7.7 glucose and 10 HEPES (pH to 7.2 with NaOH), which also contained 1 μM of the membrane permeable ester form of fura-2, acetoxymethylester (fura-2 AM) and 0.1% dimethyl sulfoxide (DMSO). The coverslips were then washed in PSS (fura-2 AM free) prior to the experiments being carried out. All solutions were applied via a rapid application system identical to that previously described (Cuevas and Berg, 1998).
A DG-4 high-speed wavelength switcher (Sutter Instruments Co., Novato, Calif.) was used to apply alternating excitation light, and fluorescent emission was captured using a Sensicam digital CCD camera (Cooke Corporation, Auburn Hills, Mich.) and recorded with Slidebook 3.0 software (Intelligent Imaging Innovations, Denver, Colo.). Changes in [Ca^2+]i were calculated using the Slidebook 3 software (Intelligent Imaging Innovations) using methods described previously (DeHaven and Cuevas, 2004).
In vitro ischemia was achieved using the sodium azide/glucose deprivation model.
The control bath solution for all experiments was a physiological saline solution (PSS) containing (in mM) 140 NaCl, 1.2 MgCl2, 3 KCl, 2.5 CaCl2, 7.7 glucose and 10 HEPES, pH to 7.2 with NaOH. All drugs were applied in this solution unless otherwise noted. In vitro ischemia was induced by addition of the cytochrome oxidase inhibitor, NaN3 (4 mM), and removal of glucose from the PSS. For experiments in which multiple ischemic episodes were induced in a single cell, the order of drug application was alternatively reversed to compensate for any effects due to rundown, desensitization or ischemic preconditioning. For experiments with metaphit, cells were preincubated in 50 μM metaphit during the last 15 mm of fura-2 loading and immediately prior to experiments being conducted. The metaphit was washed off for 5 min in the bath using PSS.

The test system of experiment [2] is ASIC channels. Put plainly: low-pH (pH 6.0) evoked ASIC-mediated increases in [Ca2+]i. The settings on record: 50 μM, pH 6.0, reversible. The format is cell-based, rat.
For experiment [3], the target named is sigma-1 receptors (Homo sapiens, UniProt Q99720). The conditions noted are these: cited from earlier work.
For experiment [4], the system named is delayed outwardly rectifying K+ channels. The settings on record: frog pituitary melanotrophs; read-out: IC50 inhibition of delayed outwardly rectifying K+ channels; cited from earlier work.
The test system of experiment [5] is voltage-gated K channels. The conditions noted are these: rat intracardiac neurons; read-out: IC50 inhibition of voltage-gated K channels; cited from earlier work.
For experiment [6], the system named is glutamate receptors. The settings on record: cited from earlier work.
The test system of experiment [7] is transient ischemia model (MCAO). The settings on record: intravenous, 1-2 hr following reperfusion; cited from earlier work.
Experiment [8] concerns cultured cortical neurons. The experiment can be described thus: spontaneous Ca2+ transients, fura-2 [Ca2+]i. It counts as cell-based, rat.
The subject of experiment [9] is rat hippocampal slices. The settings on record: rat hippocampal slices (Thurgur and Church, 1998); read-out: value reported for inhibition of epileptiform activity; cited from earlier work.
The target in experiment [10] is sigma-2 receptors (Homo sapiens, UniProt Q5BJF2). The conditions noted are these: cited from earlier work.
The test system of experiment [11] is voltage-gated Ca2+. The conditions noted are these: rat intracardiac neurons; read-out: IC50 inhibition of voltage-gated Ca2+; cited from earlier work.

pIC50: −log10 of the molar value. Read-outs that look alike come from different tables or passages of the source.

Sequence of sigma-2 receptors (Q5BJF2 whole entry): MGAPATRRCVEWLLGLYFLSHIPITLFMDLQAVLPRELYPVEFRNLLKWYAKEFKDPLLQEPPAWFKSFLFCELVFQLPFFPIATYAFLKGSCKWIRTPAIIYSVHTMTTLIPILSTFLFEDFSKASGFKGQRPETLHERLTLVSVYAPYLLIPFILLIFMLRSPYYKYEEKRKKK
Sequence of sigma-1 receptors (Q99720 whole entry): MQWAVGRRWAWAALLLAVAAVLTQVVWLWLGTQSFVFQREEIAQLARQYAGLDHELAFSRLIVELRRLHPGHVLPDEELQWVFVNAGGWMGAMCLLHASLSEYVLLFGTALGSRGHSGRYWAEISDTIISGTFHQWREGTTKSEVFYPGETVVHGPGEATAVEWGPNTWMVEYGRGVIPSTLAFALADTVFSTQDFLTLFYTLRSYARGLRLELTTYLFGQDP

For `CC(C)=CCN1CCC2(C)c3cc(O)ccc3CC1C2C` (single isomer, unassigned; (+)) [(+)-pentazocine], the “decrease of ischemia-induced elevations in [Ca2+]i” value in experiment [1] (10 μM) is on record as 37±5%; in experiment [1] (10 μM, listed as (+) pentazocine), around 60%; in experiment [1] (100 μM), 49±4%. Besides, the “decrease of low-pH evoked increases in [Ca2+]i” value in experiment [2] amounted to 50%. Further, the “affinity of sigma-1 receptors relative to ibogaine” value in [3] is around 2000 fold. Also, the pIC50 in experiment [4] is 4.43; in experiment [5] it was 4.38.

With `C=CCN1CCC2(C)c3cc(O)ccc3CC1C2C` (single isomer, unassigned; (+)) [(+)SKFIOO47], the “inhibition of calcium elevations evoked by glutamate application” value (“inhibition of calcium elevations evoked” below) in [6] (10 μM) is “inhibit”.

Turning to `CN(C)CCN(C)CCc1ccc(Cl)c(Cl)c1` [BD-1047, N-[2-(3,4-dichlorophenyl)ethyl]-N-methyl-2-(dimethylamino)ethylamine], the “reduction of the effects of DTG on ischemia-evoked calcium transients” value in experiment [1] (1 pM BD-1047, with DTG) was 15%; in experiment [1] (10 pM BD-1047, with DTG), 55%.

In the case of `c1ccc(CCCCN2CCC(c3ccccc3)CC2)cc1` [PPBP, 4-phenyl-1-(4-phenylbutyl)piperidine], in experiment [7], the “decrease in neurodegeneration in brain sections” value is 40%.

Consider `O=C(OCCN1CCOCC1)C1(c2ccccc2)CCCCC1` [PRE-084], for which the “decrease of ischemia-induced elevations in [Ca2+]i” value came out at 26±4% in experiment [1] (10 μM) and 58±1% in experiment [1] (100 μM).

`NC1=N[C@H](O)[C@H]2[C@H]3O[C@]4(O)O[C@@H]([C@@H](O)[C@@]2(N1)[C@@H]4O)[C@]3(O)CO` [TTX, tetrodotoxin]: the “decrease of ischemia-evoked increase in [Ca2+]i” value in [1] was 65±4%.

Consider `CCN(CC)CCOCCOC(=O)C1(c2ccccc2)CCCC1` [carbetapentane], for which the pIC50 in experiment [1] is 4.89; in experiment [1] (Rattus norvegicus, Cortical neurone), 4.88; in [9] it was 4.42. In [8] (100 μM), the “effect on spontaneous increases in [Ca2+]i (number of events)” value was “significant decrease”. In addition, the “affinity of sigma-1 receptors relative to sigma-2 receptors” value in experiment [3] (sigma-1 over sigma-2) was above 30 fold. In experiment [6] (100 μM), the “inhibition of calcium elevations evoked” value was “not”.

Regarding `O=C(CCCN1CCC(O)(c2ccc(Cl)cc2)CC1)c1ccc(F)cc1` [haloperidol], the “inhibition of calcium elevations evoked” value in experiment [6] (10 μM) is “inhibit”.

For the compound `C/C=C(/C)C(=O)O[C@H]1C(C)=C2[C@H]([C@@H]1OC(=O)CCCCCCC)[C@@](C)(OC(C)=O)C[C@H](OC(=O)CCC)[C@@]1(O)[C@H]2OC(=O)[C@@]1(C)O` [thapsigargin], in experiment [1] (10 μM, thapsigargin by preincubation), the “effect on ischemia-induced peak elevation in [Ca2+]i” value is reported as “decreased the peak elevation”.

Regarding ibogaine, in experiment [1] (1-100 μM), the “effect on ischemia-induced elevations in [Ca2+]i” value is “failed to inhibit”. Moreover, the “effect on number of spontaneous calcium events” value in experiment [8] (50 μM) is given as “significantly decreased”. In addition, the “decrease of low-pH evoked increases in [Ca2+]i” value in experiment [2] amounted to 70%. In experiment [10], the “affinity of sigma-2 receptors relative to (+)-pentazocine” value is around 6 fold. Besides, the “affinity of sigma-2 receptors relative to sigma-1 receptors” value in [10] (sigma-2 over sigma-1) was above 40 fold. In addition, in [11], the pIC50 is 4.51.

metaphit: the “ischemia-induced elevation in [Ca2+]i” value in experiment [1] (preincubation in 50 μM metaphit, no DTG) amounted to 495 ± 68 nM.

On to ryanodine, for which the “effect on ischemia-induced peak elevation in [Ca2+]i” value in experiment [1] is “did not significantly alter”.
